Measurements: PubChem BioAssay (NCI)
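How tested: cells in 96-well plates exposed to compound for 48 hours at five concentrations. Definition used: TGI = concentration required for complete inhibition of growth.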

Columns and labels:
Test in all cases: growth of human tumour cells (NCI), 48 h
[1] = system: 786-0 renal
[2] = system: A498 renal
[3] = system: A549 NSCLC
[4] = system: ACHN renal
[5] = system: CAKI-1 renal
[6] = system: CCRF-CEM leukemia
[7] = system: COLO 205 colon
[8] = system: DLD-1 colon
[9] = system: DMS 114 small cell lung
[10] = system: DMS 273 small cell lung
[11] = system: EKVX NSCLC
[12] = system: HCC-2998 colon
[13] = system: HCT-116 colon
[14] = system: HCT-15 colon
[15] = system: HL-60(TB) leukemia
[16] = system: HOP-18 NSCLC
[17] = system: HOP-62 NSCLC
[18] = system: HOP-92 NSCLC
[19] = system: HT29 colon
[20] = system: IGROV1 ovarian
[21] = system: K-562 leukemia
[22] = system: KM12 colon
[23] = system: KM20L2 colon
[24] = system: LOX IMVI melanoma
[25] = system: LXFL 529 NSCLC
[26] = system: M14 melanoma
[27] = system: MALME-3M melanoma
[28] = system: MOLT-4 leukemia
[29] = system: NCI-H226 lung
[30] = system: NCI-H23 lung
[31] = system: NCI-H460 lung
[32] = system: OVCAR-3 ovarian
[33] = system: OVCAR-4 ovarian
[34] = system: OVCAR-5 ovarian
[35] = system: OVCAR-8 ovarian
[36] = system: RPMI-8226 leukemia
[37] = system: RXF 393 renal
[38] = system: RXF-631 renal
[39] = system: SF-268 CNS
[40] = system: SF-295 CNS
[41] = system: SF-539 CNS
[42] = system: SK-MEL-2 melanoma
[43] = system: SK-MEL-28 melanoma
[44] = system: SK-OV-3 ovarian
[45] = system: SN12C renal
[46] = system: SNB-75 CNS
[47] = system: SNB-78 CNS
[48] = system: SR leukemia
[49] = system: SW-620 colon
[50] = system: TK-10 renal
[51] = system: U251 CNS
[52] = system: UACC-257 melanoma
[53] = system: UACC-62 melanoma
[54] = system: UO-31 renal
[55] = system: BT-549 breast
[56] = system: DU-145 prostate
[57] = system: HS 578T breast
[58] = system: M19-MEL melanoma
[59] = system: MDA-MB-435
[60] = system: MDA-N
[61] = system: NCI-H522 lung
[62] = system: PC-3 prostate
[63] = system: SK-MEL-5 melanoma
[64] = system: SNB-19 CNS
[65] = system: T-47D breast
[66] = system: XF 498 CNS

## COC(=O)C1=C(O)c2cc(OC)c(OC)c(OC)c2C(c2ccc3c(c2)OCO3)[C@@H]1C(=O)OC (some centres undefined)
[1]
  TGI: > 100 µM
[2]
  TGI: 19.2 µM
[3]
  TGI: > 100 µM
[4]
  TGI: > 100 µM
[5]
  TGI: > 100 µM
[6]
  TGI: > 100 µM
[7]
  TGI: 6.37 µM
[8]
  TGI: > 100 µM
[9]
  TGI: 5.96 µM
[10]
  TGI: > 100 µM
[11]
  TGI: > 100 µM
[12]
  TGI: 31.7 µM
[13]
  TGI: > 100 µM
[14]
  TGI: > 100 µM
[15]
  TGI: 5.49 µM
[16]
  TGI: > 100 µM
[17]
  TGI: > 100 µM
[18]
  TGI: > 100 µM
[19]
  TGI: 12.7 µM
[20]
  TGI: > 100 µM
[21]
  TGI: > 100 µM
[22]
  TGI: > 100 µM
[23]
  TGI: 6.43 µM
[24]
  TGI: > 100 µM
[25]
  TGI: > 100 µM
[26]
  TGI: 10.7 µM
[27]
  TGI: > 100 µM
[28]
  TGI: > 100 µM
[29]
  TGI: > 100 µM
[30]
  TGI: > 100 µM
[31]
  TGI: > 100 µM
[32]
  TGI: 5.3 µM
[33]
  TGI: > 100 µM
[34]
  TGI: > 100 µM
[35]
  TGI: > 100 µM
[36]
  TGI: > 100 µM
[37]
  TGI: 6.26 µM
[38]
  TGI: > 100 µM
[39]
  TGI: > 100 µM
[40]
  TGI: 13.4 µM
[41]
  TGI: 5.52 µM
[42]
  TGI: > 100 µM
[43]
  TGI: > 100 µM
[44]
  TGI: 8.76 µM
[45]
  TGI: > 100 µM
[46]
  TGI: > 100 µM
[47]
  TGI: > 100 µM
[48]
  TGI: > 100 µM
[49]
  TGI: > 100 µM
[50]
  TGI: > 100 µM
[51]
  TGI: > 100 µM
[52]
  TGI: > 100 µM
[53]
  TGI: > 100 µM
[54]
  TGI: > 100 µM

## O=S1(=O)CCC2=CC(C(F)(F)F)=CC(C(F)(F)F)=CN21
[1]
  TGI: 1.09 µM
[2]
  TGI: 3.84 µM
[3]
  TGI: 9.45 µM
[4]
  TGI: 1.11 µM
[55]
  TGI: 6.1 µM
[5]
  TGI: 2.03 µM
[6]
  TGI: 2.48 µM
[7]
  TGI: 1.34 µM
[8]
  TGI: 1.77 µM
[9]
  TGI: 3.32 µM
[56]
  TGI: 5.46 µM
[11]
  TGI: 9.38 µM
[12]
  TGI: 3.68 µM
[13]
  TGI: 0.712 µM
[14]
  TGI: 1.5 µM
[15]
  TGI: 3.9 µM
[16]
  TGI: 8.27 µM
[17]
  TGI: 4.88 µM
[18]
  TGI: 4.26 µM
[57]
  TGI: > 43.4 µM
[19]
  TGI: 9.38 µM
[20]
  TGI: 3.66 µM
[21]
  TGI: 6.61 µM
[22]
  TGI: 3.54 µM
[23]
  TGI: 5.25 µM
[24]
  TGI: 4.95 µM
[25]
  TGI: 1.6 µM
[26]
  TGI: 2.03 µM
[58]
  TGI: 3.08 µM
[27]
  TGI: 2.26 µM
[59]
  TGI: 4.77 µM
[60]
  TGI: 35.7 µM
[28]
  TGI: 1.8 µM
[29]
  TGI: 5.58 µM
[30]
  TGI: 3.37 µM
[31]
  TGI: 8.01 µM
[61]
  TGI: 0.601 µM
[32]
  TGI: 3.14 µM
[33]
  TGI: 4.24 µM
[34]
  TGI: 3.93 µM
[35]
  TGI: 2.25 µM
[62]
  TGI: 5.91 µM
[36]
  TGI: 2.05 µM
[37]
  TGI: 6.01 µM
[38]
  TGI: 3.89 µM
[39]
  TGI: 4.68 µM
[40]
  TGI: 4.8 µM
[41]
  TGI: 3.8 µM
[42]
  TGI: 4.1 µM
[43]
  TGI: 4.54 µM
[63]
  TGI: 3.02 µM
[44]
  TGI: 12.2 µM
[45]
  TGI: 3.38 µM
[64]
  TGI: 6.08 µM
[46]
  TGI: 4.39 µM
[47]
  TGI: 6.49 µM
[48]
  TGI: 1.82 µM
[49]
  TGI: 0.779 µM
[65]
  TGI: 0.397 µM
[50]
  TGI: 2.13 µM
[51]
  TGI: 3.43 µM
[52]
  TGI: 5.76 µM
[53]
  TGI: 3.69 µM
[54]
  TGI: 2.05 µM
[66]
  TGI: 3.42 µM
